From patent publication US20130345234A1, “FGFR AND LIGANDS THEREOF AS BIOMARKERS FOR BREAST CANCER IN HR POSITIVE SUBJECTS” (priority 2011, published 2013)

Experiments:
[1] = test system: breast cancer cells; test: Model of disseminated disease: liver colonization from a subcutaneous xenograft primary; type: in vivo; conditions: mice; subcutaneous (SC) xenograft primary; oral treatment
Procedure: (§1) Inhibition was observed up to 24 hours in certain models.

[2] = test system: tumor xenograft models; test: Antitumor activity in tumor xenograft models in athymic mice; type: in vivo; conditions: administered orally, all models tested
Procedure: as §1

[3] = Phase 2 trial of dovitinib: adverse events; type: in vivo, human; conditions: as of January 2011
Procedure: Patient selection was performed according to FISH/CISH for FGFR1 (cut-off≧6 gene copies). […] The primary endpoint was RECIST best overall response rate in pts with measurable disease per external radiology review.
Inclusion Criteria: • 1. Patients have histological confirmation of breast carcinoma with a clinical diagnosis of IBC based on presence of inflammatory changes in the involved breast, including diffuse erythema and edema (peau d orange), with or without an underlying palpable mass involving the majority of the skin of the breast. Pathological evidence of dermal lymphatic invasion should be noted but is not required for diagnosis. • 2. Patients have stage IV disease with local or distant relapse • 3. Patients have negative HER2 expression by IHC (defined as 0 or 1+), or FISH (fluorescence in situ hybridization). If HER2 is 2+, negative HER2 expression must be confirmed by FISH. • 4. Patients are able to swallow and retain oral medication. • 5. Patients have ECOG performance status 0-2. • 6. Patients have received up to 3 standard chemotherapies for metastatic disease and have relapsed. • 7. Patients have ability and willingness to sign written informed consent. • 8. Patients are 18 years of age or older. • 9. Female patients of childbearing potential (A person not free from menses>2 years or not surgically sterilized) must be willing to use two adequate barrier methods of contraception to prevent pregnancy or agree to abstain from heterosexual activity throughout the study. • 10. Female patients of childbearing potential must have negative serum pregnancy test. • 11. If Patients have been treated with anti-VEGF agents, such as Bevacizumab, last dose must be >4 weeks. • 12. Patients have biopsy tissue of the metastatic disease (including chest wall or regional nodes) available (paraffin blocks or up to 20 unstained slides), if no biopsy tissue available, a biopsy (or thoracentesis if patient has pleural effusion only) of the metastatic disease will be performed to confirm the diagnoses.
Exclusion Criteria: • 1. Patients are receiving concurrent anti-cancer therapy (chemotherapy, immunotherapy, radiation therapy and biological therapy) while taking study medication. • 2. Abnormal liver functions consisting of any of the following: a) Serum bilirubin>/=1.5×ULN, b) AST and ALT>/=2.5×ULN, (for patients with known liver metastasis, AST and ALT</=5×ULN is allowed), ANC<1.5. • 3. Patients have an active infection and require IV or oral antibiotics. • 4. Impaired cardiac function or clinically significant cardiac diseases, including any of the following: a) History or presence of serious uncontrolled ventricular arrhythmias or presence of atrial fibrillation; b) Clinically significant resting bradycardia (<50 beats per minute); c) LVEF<45% assessed by 2-D echocardiogram (ECHO) or Multiple gated acquisition scanning (MUGA); d) Any of the following within 6 months prior to study entry: myocardial infarction (MI), severe/unstable angina, Coronary Artery Bypass Graft (CABG), Congestive Heart Failure (CHF), Cerebrovascular Accident (CVA), Transient Ischemic Attack (TIA), Pulmonary Embolism (PE); e) Uncontrolled hypertension defined by an SBP>150 and/or a DBP>100 mm Hg with or without anti-hypertensive medication. • 5. History of gastrointestinal disorders (medical disorders or extensive surgery) which may interfere with the absorption of the study drug. • 6. Patients have a concurrent disease or condition that would make them inappropriate for study participation, or any serious medical disorder that would interfere with patients' safety. • 7. Patients with only locally or regionally confined disease without evidence of metastatic disease.

[4] = test system: FGFR downstream-signaling proteins AKT and ERK; test: Tyrosine phosphorylation of FGFR downstream-signaling proteins in xenograft tumors; type: in vivo, mice; conditions: following a single oral dose
Procedure: as §1

CN1CCN(c2ccc3nc(-c4c(N)c5c(F)cccc5[nH]c4=O)[nH]c3c2)CC1 [dovitinib, 4-amino-5-fluoro-3-[6-(4-methylpiperazin-1-yl)-1H-benzimidazol-2-yl]-1H-quinolin-2-one]
colonization of breast cancer cells in the livers [1]: significantly reduced | antitumor activity in tumor xenograft models [2]: anti-tumor responses, ranging from growth inhibition and stasis to regression | adverse event: asthenia, Group 3 ([3]; Group 3): 17% | adverse event: diarrhea, Group 3 ([3]; Group 3): 6% | adverse event: nausea, Group 3 ([3]; Group 3): 5% | adverse event: vomiting ([3]; all grades, 77 patients with data, 500 mg once daily, 5-day on/2-day off): 75% | adverse event: asthenia ([3]; all grades): 61% | adverse event: diarrhea ([3]; all grades): 72% | adverse event: nausea ([3]; all grades): 62% | adverse event: vomiting, grade 3 [Group 3] ([3]; grade 3): 6% | duration of inhibition of AKT and ERK phosphorylation ([4]; certain models): up to 24 hours | tyrosine phosphorylation of AKT and ERK ([4]; xenograft tumors): inhibited
